Data set [1] is described as follows: Oral pharmacokinetic profiles in Beagle dogs (SNAC tablets). Format: in vivo. To be noted: oral tablet: 3 mg compound, 300 mg SNAC, 7.7 mg magnesium stearate; for half-life: male, dog, plasma, read-out: T½ (converted). The method, boiled down:
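Male Beagle dogs, fasted overnight, received an oral immediate-release tablet of 3 mg compound with 300 mg SNAC, 10 min after ~3.2 nmol/kg subcutaneous glucagon. EDTA plasma sampled up to 288 h post-dose; concentrations measured by ethanol protein precipitation and LC-MS for pharmacokinetic parameters.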

Data set [2] concerns the target T1, human amylin receptor (hAMYR3) (Homo sapiens, UniProt O60896+P30988).
T1 construct: host or cells: BHK (Baby Hamster Kidney), Hollex-1 cell line further transfected with RAMP3
Nature of the data set: Human amylin receptor (hAMYR3) in vitro potency assay, CRE-luciferase reporter in BHK cells. Format: cell-based. Conditions: BHK hAMYR3/CRE-Luc cells, 3 hours incubation, assay buffer with 1% ovalbumin. In outline:
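BHK cells stably expressing human calcitonin receptor (a) plus RAMP3 and a CRE-luciferase reporter, seeded overnight, then exposed to 7-point 7-fold dilutions (often from ~10 nM) in DMEM/HEPES buffer with 1% ovalbumin for 3 h at 37 °C. Luciferase luminescence read after SteadyLite Plus addition.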
For orientation: A reporter such as luciferase makes a cellular process visible.

Starred links: 1 amine or outer side, 2 acyl side, 3 side chain; linkers in the order of their positions; H or OH if unused. Residues, ends and D or L forms follow the SMILES beside them. *: point of attachment. C18 diacid = O=C(O)CCCCCCCCCCCCCCCCC(=O)*; γGlu = O=C(O)[C@H](CCC(=O)[*:2])N[*:1]

T1 sequence (P30988 25-474): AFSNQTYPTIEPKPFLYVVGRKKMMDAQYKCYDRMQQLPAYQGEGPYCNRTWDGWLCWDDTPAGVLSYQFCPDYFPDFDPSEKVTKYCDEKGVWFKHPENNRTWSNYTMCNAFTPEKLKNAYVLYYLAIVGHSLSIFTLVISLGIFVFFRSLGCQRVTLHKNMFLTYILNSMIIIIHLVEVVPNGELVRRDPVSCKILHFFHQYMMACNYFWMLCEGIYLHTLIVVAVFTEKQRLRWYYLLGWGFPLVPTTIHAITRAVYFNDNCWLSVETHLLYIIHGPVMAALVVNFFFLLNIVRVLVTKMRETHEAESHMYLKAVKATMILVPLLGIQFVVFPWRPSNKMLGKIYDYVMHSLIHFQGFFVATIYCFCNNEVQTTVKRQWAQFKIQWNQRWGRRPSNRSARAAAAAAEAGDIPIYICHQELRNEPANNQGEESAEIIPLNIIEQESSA
T1 sequence (O60896 24-148): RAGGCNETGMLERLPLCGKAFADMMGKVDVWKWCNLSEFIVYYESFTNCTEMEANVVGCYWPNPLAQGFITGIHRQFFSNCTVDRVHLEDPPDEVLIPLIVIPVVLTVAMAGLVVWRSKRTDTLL

On to `CC[C@H](C)[C@H](NC(=O)[C@H](C)NC(=O)CNC(=O)[C@H](Cc1ccccc1)NC(=O)[C@@H]1CCCN1C(=O)[C@H](CC(=O)O)NC(=O)[C@H](CO)NC(=O)[C@H](CO)NC(=O)[C@H](Cc1c[nH]cn1)NC(=O)[C@H](Cc1c[nH]cn1)NC(=O)[C@H](CC(C)C)NC(=O)[C@H](Cc1ccccc1)NC(=O)[C@H](CCC(=O)O)NC(=O)[C@H](C)NC(=O)[C@H](CC(C)C)NC(=O)[C@H](CCCNC(=N)N)NC(=O)[C@H](CCC(N)=O)NC(=O)[C@@H](NC(=O)[C@H](CCC(N)=O)NC(=O)[C@H](C)NC(=O)[C@@H](NC(=O)[C@H](CO)NC(=O)[C@H](CC(C)C)NC(=O)[C@H](CCC(N)=O)NC(=O)[C@H](CO)NC(=O)[C@H](C)NC(=O)CC[C@H](NC(=O)CCCCCCCCCCCCCCCCC(=O)O)C(=O)O)[C@@H](C)O)[C@@H](C)O)C(=O)N1CCC[C@H]1C(=O)N[C@@H](CO)C(=O)N[C@@H](CO)C(=O)N[C@H](C(=O)N[C@@H](CC(=O)O)C(=O)N[C@H](C(=O)NCC(=O)N1CCC[C@H]1C(=O)N[C@@H](CC(=O)O)C(=O)N[C@H](C(=O)N1CCC[C@H]1C(N)=O)[C@@H](C)O)C(C)C)[C@@H](C)O` [Compound 24] ({C18 diacid-γGlu}-ASQLSTAQTQRLAEFLHHSSDPFGAIPSSTDVGPDTP-NH2), for which, in data set [1], the half-life was 5.02 days, the “AUC/D” value was found to be 31.21 kg·h/L and the “Cmax/D” value is given as 0.36 kg/L. Further, in data set [2], the EC50 was 1.49 pM.

On to `CC[C@H](C)[C@H](NC(=O)[C@H](C)NC(=O)CNC(=O)[C@H](Cc1ccccc1)NC(=O)[C@@H]1CCCN1C(=O)[C@H](CC(=O)O)NC(=O)[C@H](CO)NC(=O)[C@H](CO)NC(=O)[C@H](Cc1c[nH]cn1)NC(=O)[C@H](Cc1c[nH]cn1)NC(=O)[C@H](CC(C)C)NC(=O)[C@H](Cc1ccccc1)NC(=O)[C@H](CCC(=O)O)NC(=O)[C@H](C)NC(=O)[C@H](CC(C)C)NC(=O)[C@H](CCCNC(=N)N)NC(=O)[C@H](C)NC(=O)[C@@H](NC(=O)[C@H](CCC(N)=O)NC(=O)[C@H](C)NC(=O)[C@@H](NC(=O)[C@H](CO)NC(=O)[C@H](CC(C)C)NC(=O)[C@H](Cc1c[nH]cn1)NC(=O)[C@H](CO)NC(=O)[C@H](C)NC(=O)CC[C@H](NC(=O)CCCCCCCCCCCCCCCCC(=O)O)C(=O)O)[C@@H](C)O)[C@@H](C)O)C(=O)N1CCC[C@H]1C(=O)N[C@@H](CO)C(=O)N[C@@H](CO)C(=O)N[C@H](C(=O)N[C@@H](CC(=O)O)C(=O)N[C@H](C(=O)NCC(=O)N1CCC[C@H]1C(=O)N[C@@H](CC(=O)O)C(=O)N[C@H](C(=O)N1CCC[C@H]1C(N)=O)[C@@H](C)O)C(C)C)[C@@H](C)O` [Compound 25, N^1-[(4S)-4-carboxy-4-(17-carboxyheptadecanoylamino)butanoyl]-[Ala1,Ser2,His3,Leu4,Ser5,Ala7,Gln8,Ala10,Glu14,His17,Asp21,Pro22,Pro27,Asp31,Pro34,Asp35,Pro37]-human amylin] ({C18 diacid-γGlu}-ASHLSTAQTARLAEFLHHSSDPFGAIPSSTDVGPDTP-NH2), for which, in data set [1], the half-life is 6.35 days, the “AUC/D” value amounted to 24.15 kg·h/L and the “Cmax/D” value was 0.34 kg/L. In addition, the EC50 in data set [2] stood at 1.27 pM.

By EC50 is commonly meant the concentration giving half of the maximal effect.
